According to US20020054880A1, “Anti-inflammatory, tolerogenic and immunoinhibiting properties of carbohydrate binding-peptides” (priority 1992, published 2002):
Where two headings read alike, the source gives them in different places.

Key:
[1] = biological target: αNeuAc(2-3)βGal(1-3)βGlcNAc-BSA (Bos taurus, UniProt P02769); details: SLe^c, conjugate 50 μg/mL, 1 hour
Method: (§1) Binding assays were carried out essentially as described above using microtiter wells that were coated with 50 μl of BSA glycoconjugate (50 μg/ml) in 50 mM sodium phosphate buffer (pH 6.8) containing 5 mM MgCl2 nd 15 mM NaN3 for 16 hours at 4° C. The solution was removed by aspiration and replaced with 100 μl of 1% BSA in PBS containing 0.05% Tween 20 (PBST) and incubated at room temperature for an additional 2-3 hours. […] After incubating for 1 hour, the binding reaction was stopped by aspirating the solutions and the plate was washed with PBST (4×300 μl). Avidin-peroxidase (100 μl of a 1/3000 dilution of a 1 mg/ml solution in PBST) was added and incubated for an additional 1 hour. After washing the wells as described above, the substrate solution (1 mM ABTS in 5 mM citrate buffer, pH 4.2, containing 0.1% hydrogen peroxide, v/v) was added and the plates were incubated for 30 minutes. Binding assays for each BSA conjugate were done in triplicate and background binding was measured in wells coated with BSA only.

[2] = biological target: αNeuAc(2-3)βGal(1-4)βGlcNAc-BSA (Bos taurus, UniProt P02769); details: conjugate 50 μg/mL, 1 hour; for % Binding Relative to Fetuin of ACS2P1-b (n = 3): 0.1 μg ACS2P1-biotin; for % Binding Relative to Fetuin of SPYGRC-b (n = 3): 0.5 μg SPYGRC-b
Method: as §1

[3] = biological target: αNeuAc(2-3)βGal(1-4)βGlcNAc-BSA (1-3) αFuc (Bos taurus, UniProt P02769); details: SLe^x, conjugate 50 μg/mL, 1 hour
Method: as §1

[4] = biological target: αNeuAc(2-3)βGal(1-3)βGlcNAc-BSA (1-4) αFuc (Bos taurus, UniProt P02769); details: SLe^a(C19.9), conjugate 50 μg/mL, 1 hour
Method: as §1

[5] = biological target: PT immobilized in microtiter wells (Bordetella pertussis, UniProt P04978+P04979)
fetuin = fetuin (Bos taurus, UniProt P12763)
Text: (§2) The reaction was terminated by removing the mixture from the IODO-GEN tube and the iodinated peptide was purified on a Sephadex G-25 column (1×15 cm equilibrated with PBS).

asialofetuin = biological target: T1, asialofetuin (Bos taurus, UniProt P12763); details: ACS2P1-biotin 10 μg/ml; glycoprotein 3 μg/ml; n=3
T1 sequence (P12763 19-359): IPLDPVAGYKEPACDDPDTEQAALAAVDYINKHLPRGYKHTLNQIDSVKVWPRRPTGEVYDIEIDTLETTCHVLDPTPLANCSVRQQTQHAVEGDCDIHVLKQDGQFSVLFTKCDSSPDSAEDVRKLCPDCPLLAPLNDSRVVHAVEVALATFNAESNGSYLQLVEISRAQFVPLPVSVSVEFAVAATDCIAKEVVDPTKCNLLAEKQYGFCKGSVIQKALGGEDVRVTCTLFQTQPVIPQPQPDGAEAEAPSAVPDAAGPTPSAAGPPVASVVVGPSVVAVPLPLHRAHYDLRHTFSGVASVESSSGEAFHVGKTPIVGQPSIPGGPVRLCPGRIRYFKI
Text: as §2

asialoagalactofetuin = biological target: T2, asialoagalactofetuin (Bos taurus, UniProt P12763); details: ACS2P1-biotin 10 μg/ml; glycoprotein 3 μg/ml; n=3
T2 sequence (P12763 19-359): T1 sequence (P12763 19-359)
Text: as §2

Chain of αNeuAc(2-3)βGal(1-4)βGlcNAc-BSA (P02769 25-607): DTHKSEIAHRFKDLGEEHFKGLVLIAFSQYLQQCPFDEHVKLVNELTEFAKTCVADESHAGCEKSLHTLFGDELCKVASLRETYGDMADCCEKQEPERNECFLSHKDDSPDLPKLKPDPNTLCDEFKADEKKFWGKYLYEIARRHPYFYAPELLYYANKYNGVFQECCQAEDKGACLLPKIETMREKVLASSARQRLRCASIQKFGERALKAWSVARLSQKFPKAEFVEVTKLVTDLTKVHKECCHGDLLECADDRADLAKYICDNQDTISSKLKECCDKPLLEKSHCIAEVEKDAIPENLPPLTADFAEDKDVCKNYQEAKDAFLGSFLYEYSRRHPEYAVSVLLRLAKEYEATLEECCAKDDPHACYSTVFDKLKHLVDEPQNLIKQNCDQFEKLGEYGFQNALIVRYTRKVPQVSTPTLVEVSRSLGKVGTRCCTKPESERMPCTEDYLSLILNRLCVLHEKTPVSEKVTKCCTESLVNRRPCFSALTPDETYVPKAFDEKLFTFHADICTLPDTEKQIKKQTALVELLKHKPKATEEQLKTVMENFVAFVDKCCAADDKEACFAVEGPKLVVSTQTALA
Chain of αNeuAc(2-3)βGal(1-4)βGlcNAc-BSA (1-3) αFuc (P02769 25-607): as above
Chain of αNeuAc(2-3)βGal(1-3)βGlcNAc-BSA (P02769 25-607): as above
Chain of αNeuAc(2-3)βGal(1-3)βGlcNAc-BSA (1-4) αFuc (P02769 25-607): as above
Chain of PT immobilized in microtiter wells (P04978 whole entry, looked up): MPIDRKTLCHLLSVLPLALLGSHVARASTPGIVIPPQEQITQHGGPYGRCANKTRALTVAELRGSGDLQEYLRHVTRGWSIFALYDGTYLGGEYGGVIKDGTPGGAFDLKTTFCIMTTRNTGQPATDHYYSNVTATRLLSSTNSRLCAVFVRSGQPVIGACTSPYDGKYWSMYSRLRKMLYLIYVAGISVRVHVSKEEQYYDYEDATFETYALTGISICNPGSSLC
Chain of PT immobilized in microtiter wells (P04979 whole entry, looked up): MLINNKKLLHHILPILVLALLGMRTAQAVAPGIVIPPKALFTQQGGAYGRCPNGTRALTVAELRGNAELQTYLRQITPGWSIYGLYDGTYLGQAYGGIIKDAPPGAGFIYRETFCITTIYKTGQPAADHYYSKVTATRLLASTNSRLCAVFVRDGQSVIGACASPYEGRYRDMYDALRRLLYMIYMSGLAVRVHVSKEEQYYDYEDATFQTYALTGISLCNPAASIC

| Substance | % Binding Relative to Fetuin of ACS2P1-b (n = 3) ([1]; 0.1 μg ACS2P1-biotin) [%] | % Binding Relative to Fetuin of ACS2P1-b (n = 3) ([2]; SLacNAc (table row r10)) [%] | % Binding Relative to Fetuin of ACS2P1-b (n = 3) ([2]; SLacNAc (table row r12)) [%] | % Binding Relative to Fetuin of ACS2P1-b (n = 3) ([3]; 0.1 μg ACS2P1-biotin) [%] | % Binding Relative to Fetuin of ACS2P1-b (n = 3) ([4]; 0.1 μg ACS2P1-biotin) [%] | direct binding of biotinylated peptide to PT immobilized in microtiter wells, in words [5] | direct binding of biotinylated peptide to fetuin, in words (fetuin) | reduction of binding of the peptide to fetuin by extensive iodination (IODO-GEN) (fetuin; iodinated vs underivatized peptide, 10 μg/ml, n=3) [%] | binding to asialofetuin relative to fetuin (asialofetuin) [%] | binding to asialoagalactofetuin relative to fetuin (asialoagalactofetuin) [%] | % Binding Relative to Fetuin of SPYGRC-b (n = 3) ([1]; 0.5 μg SPYGRC-b) [%] | % Binding Relative to Fetuin of SPYGRC-b (n = 3) ([2]; SLacNAc (table row r10)) [%] | % Binding Relative to Fetuin of SPYGRC-b (n = 3) ([2]; SLacNAc (table row r12)) [%] | % Binding Relative to Fetuin of SPYGRC-b (n = 3) ([3]; 0.5 μg SPYGRC-b) [%] | % Binding Relative to Fetuin of SPYGRC-b (n = 3) ([4]; 0.5 μg SPYGRC-b) [%] |
| --- | --- | --- | --- | --- | --- | --- | --- | --- | --- | --- | --- | --- | --- | --- | --- |
| BIOTIN-PQEQITQHGSPYGRC-CO—NH2 [ACS2P1-b] | 70 ± 4 | 117 ± 12 | 94 ± 2 | 84 ± 3 | 84 ± 14 | concentration-dependent binding | concentration-dependent binding | 58±3 | 45±9 | 93±18 | – | – | – | – | – |
| BIOTIN-SPYGRC-CO—NH2 [SPYGRC-b] | – | – | – | – | – | – | – | – | – | – | 97 ± 12 | 120 ± 7 | 122 ± 5 | 120 ± 4 | 103 ± 8 |
